Each structure is given as a SMILES string.

T1 sequence (P02768 25-609): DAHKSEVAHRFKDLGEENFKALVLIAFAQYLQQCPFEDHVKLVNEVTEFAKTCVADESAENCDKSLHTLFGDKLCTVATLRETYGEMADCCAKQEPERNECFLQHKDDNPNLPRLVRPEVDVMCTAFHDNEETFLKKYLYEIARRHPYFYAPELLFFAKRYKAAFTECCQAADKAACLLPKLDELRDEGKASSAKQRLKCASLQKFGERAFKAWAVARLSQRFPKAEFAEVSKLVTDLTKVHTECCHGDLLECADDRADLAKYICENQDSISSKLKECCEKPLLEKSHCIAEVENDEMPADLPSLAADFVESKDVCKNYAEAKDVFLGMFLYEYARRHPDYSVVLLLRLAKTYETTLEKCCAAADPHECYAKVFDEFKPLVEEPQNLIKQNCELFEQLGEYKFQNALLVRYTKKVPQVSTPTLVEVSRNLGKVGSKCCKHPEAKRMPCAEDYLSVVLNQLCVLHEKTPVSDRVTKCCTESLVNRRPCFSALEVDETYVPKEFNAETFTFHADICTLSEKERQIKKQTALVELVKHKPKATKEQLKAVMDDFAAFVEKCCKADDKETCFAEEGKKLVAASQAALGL

The assay addresses T1, human serum albumin (HSA) (Homo sapiens, UniProt P02768).
T1 construct: gene ALB; mature serum albumin, 585 residues (signal and propeptide removed)
As to the kind of experiment: tryptophan fluorescence quenching, modified Stern-Volmer. Format: binding. Particulars: 298 K, pH 7.4, 0.1 M Tris, 0.1 M NaCl, 1 µM HSA, excitation 280 nm; mainly site II (subdomain IIIA). From the text:
tryptophan fluorescence quenching, modified Stern-Volmer on human serum albumin (HSA)
Regarding `CC(C)(C)CC(=O)N1c2ccc(Cl)cc2C(=O)N(N=Cc2ccccc2)C1c1ccccc1` (stereo not shown) [3a, 3-(Benzylideneamino)-6-chloro-1-(3,3-dimethylbutanoyl)-2-phenyl-2,3-dihydroquinazolin-4(1H)-one], the “Ka (×10^4 M^-1)” value is given as 2.16 × 10^4 M^−1.

With `CC(C)(C)CC(=O)N1c2ccc(Cl)cc2C(=O)N(N=Cc2ccc(F)cc2)C1c1ccccc1` (stereo not shown) [3b, 6-Chloro-1-(3,3-dimethylbutanoyl)-3-(4-fluorobenzylideneamino)-2-phenyl-2,3-dihydroquinazolin-4(1H)-one], the “Ka (×10^4 M^-1)” value is listed as 2.33 × 10^4 M^−1.

Turning to `CC(C)(C)CC(=O)N1c2ccc(Cl)cc2C(=O)N(N=Cc2cccc(F)c2)C1c1ccccc1` (stereo not shown) [3c, 6-Chloro-1-(3,3-dimethylbutanoyl)-3-(3-fluorobenzylideneamino)-2-phenyl-2,3-dihydroquinazolin-4(1H)-one], the “Ka (×10^4 M^-1)” value is 2.73 × 10^4 M^−1.

Regarding `CC(C)(C)CC(=O)N1c2ccc(Cl)cc2C(=O)N(N=Cc2ccccc2F)C1c1ccccc1` (stereo not shown) [3d, 6-Chloro-1-(3,3-dimethylbutanoyl)-3-(2-fluorobenzylideneamino)-2-phenyl-2,3-dihydroquinazolin-4(1H)-one], the “Ka (×10^4 M^-1)” value is 2.46 × 10^4 M^−1.

The values above are taken from PMC6273767, “Comparative Studies of Interactions between Fluorodihydroquinazolin Derivatives and Human Serum Albumin with Fluorescence Spectroscopy” (Molecules, 2016).
